# Earlier results in patent publication US9198974B2, “Decorated macromolecular scaffolds” (Mintaka Foundation for Medical Research, priority 2011, dated 2015).
# Conditions: for pKa, m-: meta-substituted aniline; for pKa, m- / pKa, o-: listed as gives the substituent; for pKa, o-: ortho-substituted aniline
SMILES,"pKa, m-","pKa, o-",other results
Nc1cccc(Br)c1 [m-Br—],3.51,–,–
CCOC(=O)c1cccc(N)c1 [m-C2H5O2C—],2.38,–,–
CCOc1cccc(N)c1 [m-C2H5O—],4.17,–,–
Nc1cccc(-c2ccccc2)c1 [m-C6H5—],4.18,–,–
COC(=O)c1cccc(N)c1 [m-CH3O2C—],3.56,–,–
COc1cccc(N)c1 [m-CH3O—],4.20,–,–
CSc1cccc(N)c1 [m-CH3S—],4.40,–,–
Cc1cccc(N)c1 [m-CH3—],4.67,–,–
Nc1cccc(Cl)c1 [m-Cl—],3.32,–,–
Nc1cccc(C(F)(F)F)c1 [m-F3C—],2.57,–,–
Nc1cccc(F)c1 [m-F—],3.38,–,–
Nc1cccc(N)c1 [m-H2N—],4.88,–,–
Nc1cccc(C(=O)O)c1 [m-HO2C—],3.05,–,–
Nc1cccc(O)c1 [m-HO—],4.17,–,–
Nc1cccc([N+](=O)[O-])c1 [m-O2N—],2.45,–,–
Nc1cccc(S(=O)(=O)O)c1 [m-O3S—],3.32,–,–
CC(C)(C)c1ccccc1N [o-(CH3)3C—],–,3.78,–

SMILES,"pKa, m-","pKa, o-",other results
Nc1ccccc1Br [o-Br—],–,2.6,–
CCOC(=O)c1ccccc1N [o-C2H5O2C—],–,2.10,–
CCOc1ccccc1N [o-C2H5O—],–,4.47,–
Nc1ccccc1-c1ccccc1 [o-C6H5—],–,3.78,–
COC(=O)c1ccccc1N [o-CH3O2C—],–,2.16,–
COc1ccccc1N [o-CH3O—],–,4.49,–
CSc1ccccc1N [o-CH3S—],–,4.05,–
Cc1ccccc1N [o-CH3—],–,4.38,–
Nc1ccccc1Cl [o-Cl—],–,2.62,–
Nc1ccccc1C(F)(F)F [o-F3C—],–,3.49,–
Nc1ccccc1F [o-F—],–,2.96,–
Nc1ccccc1N [o-H2N—],–,4.47,–
Nc1ccccc1C(=O)O [o-HO2C—],–,2.04,–
Nc1ccccc1O [o-HO—],–,4.72,–
Nc1ccccc1[N+](=O)[O-] [o-O2N—],–,−0.28,–
Nc1ccccc1S(=O)(=O)O [o-O3S—],–,3.80,–
"CCOc1ccc(N)cc1 [p-C2H5O—, 4-ethoxy aniline]",–,–,pKa (preferred aniline catalysts): 5.2
